Like-named read-outs stand apart in the source and are kept apart here.
Key:
[1] = cited from earlier work
[2] = in water at 25° C.; cited from earlier work
[3] = Cellvento CHO 200, text

SMILES	Solubility (water) PubChem Database ([1]; at 25° C.)	further results
[Ca+2].[Cl-].[Cl-] [Calcium Chloride anhydrous]		Solubility (water) PubChem Database ([1]; at 20° C.): 745 g/l at
O=C[C@@H](O)[C@@H](O)[C@H](O)[C@H](O)CO [D(+)-Mannose]		Solubility (water) PubChem Database ([1]; at 17° C.): 713 g/L bei
O=C(CO)[C@@H](O)[C@H](O)[C@H](O)CO [D(−)-FRUCTOSE]	200 g/100 ml	
C[C@H](N)C(=O)O [L-ALANINE]	164 g/l water	
N[C@@H](CSSC[C@H](N)C(=O)O)C(=O)O [L-Cystine, L-cystine]		Solubility [2]: nearly insoluble; Maximal concentration in Cellvento CHO 200 at which the medium can still be completely dissolved in water [3]: below 0.1 g/L
Cl.NCCCC[C@H](N)C(=O)O [L-LYSINE MONOHYDROCHLORIDE]	>100 g/100 g/100 ml	
CSCC[C@H](N)C(=O)O [L-Methionine]	56.6 g/L water g/l	
[Cl-].[K+] [Potassium chloride]	35.5/100 g /100 g water	

From patent US20210207079A1, “PROCESS FOR PRODUCING CELL CULTURE MEDIA” (Merck Patent GmbH, priority 2015, published 2021)
